Where two headings read alike, the source gives them in different places.
Legend:
[1] = molecular target: T1, HIV-1 RT double mutant K103N/Y181C (Human immunodeficiency virus type 1 group M subtype B, UniProt P03366, K702N/Y780C); experiment: biochemical
T1 construct: HIV-1 wild type reverse transcriptase as well as the clinically significant double mutant K103N/Y181C
Protocol: (§1) Utilizing the Reverse Transcriptase (RT) Assay described below, compounds were tested for their ability to inhibit the RNA-dependent DNA polymerase activity of HIV-1 RT. Certain specific compounds described in the Examples and in Tables 1-4, were so tested. The results of this testing appear in Table 5 as ranges of IC50 (nM) and EC50 (nM).
(§2) Reverse Transcriptase (RT) Assays

[2] = molecular target: T2, HIV-1 wild type reverse transcriptase (Human immunodeficiency virus type 1 group M subtype B, UniProt P03366); experiment: biochemical; conditions: wild type RT; read-out: IC50 WT RT
T2 construct: HIV-1 wild type reverse transcriptase
Protocol: as §1, §2

HIV-1 wild type = experiment: microbe, parasite or virus in culture; format: cell-based
[3] = tested on: HIV-1 double mutant K103N/Y181C; experiment: microbe, parasite or virus in culture; format: cell-based
[4] = Human immunodeficiency virus 1, wild type, read-out: EC50 WT RT
[5] = Human immunodeficiency virus 1, read-out: EC50 K103N/Y181C (nM)
[6] = RT double mutant K103N/Y181C, read-out: IC50 K103N/Y181C
[7] = wild type, read-out: EC50 WT RT
[8] = double mutant K103N/Y181C, read-out: EC50 K103N/Y181C
[9] = Human immunodeficiency virus 1, read-out: EC50 WT RT (nM)

Compound | IC50 [1] [nM] | IC50 [2] [nM] | EC50 (HIV-1 wild type; [4]) [nM] | EC50 [3, 5] [nM] | IC50 [1, 6] [nM] | EC50 (HIV-1 wild type; [7]) [nM] | EC50 [3, 8] [nM] | EC50 (HIV-1 wild type; [9]) [nM]
CCN1c2ncc(CCOc3ccc(-c4cc(C(=O)O)c(C)o4)cc3)cc2C(=O)N(C)c2cccnc21 [Entry 1047, 5-{4-[2-(11-Ethyl-6,11-dihydro-5-methyl-6-oxo-5H-dipyrido[3,2-b:2′,3′-e][1,4]diazepin-8-yl)ethoxy]phenyl}-2-methyl-3-furanecarboxylic acid] | > 100 | < 50 | 10 to 50 | > 50 |  |  |  | 
CCN1c2ncccc2NC(=O)c2cc(CCOc3ccc(-c4ccc(CC(=O)O)cc4)cc3C)cnc21 [Entry 1058] |  | < 50 |  |  | 50 to 100 | < 10 | 10 to 50 | 
Cc1cc(-c2ccc(CC(=O)O)cc2)ccc1OCCc1cnc2c(c1)C(=O)N(C)c1cccnc1N2 [Entry 1059] |  | < 50 |  |  | > 100 | < 10 | > 50 | 
CCN1c2ncc(CCOc3ccc(-c4ccncc4)cc3)cc2C(=O)N(C)c2cccnc21 [Entry 1090, 11-Ethyl-5,11-dihydro-5-methyl-8-{2-[4-(4-pyridinyl)phenoxy]ethyl}-6H-dipyrido[3,2-b:2′,3′-e][1,4]diazepin-6-one] | 50 to 100 | < 50 | < 10 | 10 to 50 |  |  |  | 
CCN1c2ncc(CCOc3ccc(-c4cc[n+]([O-])cc4)cc3)cc2C(=O)N(C)c2cccnc21 [Entry 1091, 11-Ethyl-5,11-dihydro-5-methyl-8-{2-[4-(1-oxido-4-pyridinyl)phenoxy]ethyl}-6H-dipyrido[3,2-b:2′,3′-e][1,4]diazepin-6-one] | < 50 | < 50 | < 10 | < 10 |  |  |  | 
CCN1c2ncc(CCOc3ccc(-c4csc(N)n4)cc3C)cc2C(=O)N(C)c2cccnc21 [Entry 1093, 8-{2-[4-(2-Amino-4-thiazolyl)-2-methylphenoxy]ethyl}-11-ethyl-5,11-dihydro-5-methyl-6H-dipyrido[3,2-b:2′,3′-e][1,4]diazepin-6-one] | < 50 | < 50 | < 10 | < 10 |  |  |  | 
CCN1c2ncc(CCOc3ccc(-c4c[nH]cn4)cc3C)cc2C(=O)N(C)c2cccnc21 [Entry 1094, 11-Ethyl-5,11-dihydro-8-{2-[4-(1H-imidazol-4-yl)-2-methylphenoxy]ethyl}-5-methyl-6H-dipyrido[3,2-b:2′,3′-e][1,4]diazepin-6-one] | < 50 | < 50 | < 10 | < 10 |  |  |  | 
CCN1c2ncc(CCOc3ccc(-c4cn(C)cn4)cc3C)cc2C(=O)N(C)c2cccnc21 [Entry 1095, 11-Ethyl-5,11-dihydro-5-methyl-8-{2-[2-methyl-4-(1-methyl-1H-imidazol-4-yl)phenoxy]ethyl}-6H-dipyrido[3,2-b:2′,3′-e][1,4]diazepin-6-one] | < 50 | < 50 | < 10 | < 10 |  |  |  | 
CCN1c2ncc(CCOc3ccc(-c4cocn4)cc3C)cc2C(=O)N(C)c2cccnc21 [Entry 1099, 11-Ethyl-5,11-dihydro-5-methyl-8-{2-[2-methyl-4-(4-oxazolyl)phenoxy]ethyl}-6H-dipyrido[3,2-b:2′,3′-e][1,4]diazepin-6-one] | < 50 | < 50 | < 10 | < 10 |  |  |  | 
CCN1c2ncc(CCOc3ccc(-c4ccccc4)cc3)cc2C(=O)N(C)c2cccnc21 [Entry 1101] |  | < 50 |  |  | 50 to 100 | < 10 | > 50 | 
CCN1c2ncc(CCOc3ccc(-c4ccc(CC(=O)O)cc4)cc3CO)cc2C(=O)N(C)c2cccnc21 [Entry 1104] |  | < 50 |  |  | < 50 | < 10 | 10 to 50 | 
CCN1c2ncc(CCOc3ccc(C(=O)Nc4ccc(C(=O)O)cc4)cc3C)cc2C(=O)N(C)c2cccnc21 [Entry 3001, 4-{{4-[2-(11-Ethyl-6,11-dihydro-5-methyl-6-oxo-5H-dipyrido[3,2-b:2′,3′-e][1,4]diazepin-8-yl)ethoxy]-3-methylbenzoyl}amino}benzoic acid] | < 50 | < 50 |  | 10 to 50 |  |  |  | < 10
CCN1c2ncc(CCOc3ccc(C(=O)Nc4cc[n+]([O-])cc4)cc3C)cc2C(=O)N(C)c2cccnc21 [Entry 3004, 4-[2-(11-Ethyl-6,11-dihydro-5-methyl-6-oxo-5H-dipyrido[3,2-b:2′,3′-e][1,4]diazepin-8-yl)ethoxy]-3-methyl-N-(1-oxido-4-pyridinyl)benzamide] | < 50 | < 50 | < 10 | < 10 |  |  |  | 
CCN1c2ncc(CCOc3ccc(C(=O)Nc4ccc(CC(=O)O)cc4)cc3C)cc2C(=O)N(C)c2cccnc21 [Entry 3005] | < 50 | < 50 |  | 10 to 50 |  |  |  | < 10
CCN1c2ncc(CCOc3ccc(C(=O)Nc4nc(CC(=O)O)cs4)cc3C)cc2C(=O)N(C)c2cccnc21 [Entry 3007] | < 50 | < 50 | 10 to 50 | > 50 |  |  |  | 
CCN1c2ncc(CCOc3ccc(C(=O)NS(=O)(=O)c4ccccc4)cc3C)cc2C(=O)N(C)c2cccnc21 [Entry 3009] | > 100 | < 50 |  | > 50 |  |  |  | 10 to 50
CCN1c2ncc(CCOc3ccc(C(=O)Nc4cccc(CC(=O)O)c4)cc3C)cc2C(=O)N(C)c2cccnc21 [Entry 3010] | < 50 | < 50 |  | 10 to 50 |  |  |  | 10 to 50

Compound | IC50 [1] [nM] | IC50 [2] [nM] | EC50 (HIV-1 wild type; [4]) [nM] | EC50 [3, 5] [nM] | IC50 [1, 6] [nM] | EC50 (HIV-1 wild type; [7]) [nM] | EC50 [3, 8] [nM] | EC50 (HIV-1 wild type; [9]) [nM]
CCN1c2ncc(CCOc3ccc(C(=O)Nc4ccccc4C(=O)O)cc3C)cc2C(=O)N(C)c2cccnc21 [Entry 3011] | > 100 | < 50 |  | > 50 |  |  |  | 10 to 50
CCN1c2ncc(CCOc3ccc(C(=O)Nc4cccn(CC(=O)O)c4=O)cc3C)cc2C(=O)N(C)c2cccnc21 [Entry 3012] | 50 to 100 | < 50 | > 50 | > 50 |  |  |  | 
CCN1c2ncc(CCOc3ccc(C(=O)Nc4ccc(C(=O)O)cc4)cc3C)cc2C(=O)Nc2c(C)ccnc21 [Entry 3017] |  | < 50 |  |  | < 50 | 10 to 50 | > 50 | 
CCN1c2ncc(CCOc3ccc(C(=O)Nc4ccc(CC(=O)O)cc4)cc3C)cc2C(=O)Nc2c(C)ccnc21 [Entry 3018] | < 50 | < 50 |  | > 50 |  |  |  | 10 to 50
CCN1c2ncc(CCOc3ccc(C(=O)Nc4cccc[n+]4[O-])cc3C)cc2C(=O)Nc2c(C)ccnc21 [Entry 3019] |  | < 50 |  |  | 50 to 100 | < 10 | < 10 | 
CCN1c2ncc(CCOc3ccc(C(=O)Nc4ccc[n+]([O-])c4)cc3C)cc2C(=O)Nc2c(C)ccnc21 [Entry 3020] |  | < 50 |  |  | < 50 | < 10 | < 10 | 
CCN1c2ncc(CCOc3ccc(C(=O)Nc4cccnc4O)cc3C)cc2C(=O)N(C)c2cccnc21 [Entry 3021] | < 50 | < 50 | < 10 | < 10 |  |  |  | 
CCN1c2ncc(CCOc3ccc(Nc4ccc(C(=O)O)cc4)cc3C)cc2C(=O)N(C)c2cccnc21 [Entry 3022, 4-{{4-[2-(11-Ethyl-6,11-dihydro-5-methyl-6-oxo-5H-dipyrido[3,2-b:2′,3′-e][1,4]diazepin-8-yl)ethoxy]-3-methylphenyl}amino}benzoic acid] | < 50 | < 50 |  | 10 to 50 |  |  |  | < 10
CCN1c2ncc(CCOc3ccc(Nc4cccc(CC(=O)O)c4)cc3C)cc2C(=O)N(C)c2cccnc21 [Entry 3024] | < 50 | < 50 |  | < 10 |  |  |  | < 10
CCN1c2ncc(CCOc3ccc(C(=O)c4ccc(C(=O)O)cc4)cc3C)cc2C(=O)N(C)c2cccnc21 [Entry 3027] | 50 to 100 | < 50 |  | 10 to 50 |  |  |  | < 10
CCN1c2ncc(CCOc3ccc(S(=O)(=O)Nc4ccc(C(=O)O)cc4)cc3C)cc2C(=O)N(C)c2cccnc21 [Entry 3030] |  | < 50 |  |  | < 50 | > 50 | > 50 | 
CCN1c2ncc(CCOc3ccc(NC(=O)Nc4ccc(C(=O)O)cc4)cc3C)cc2C(=O)N(C)c2cccnc21 [Entry 3031] | < 50 | < 50 |  | > 50 |  |  |  | 10 to 50
CCN1c2ncc(CCOc3ccc(NC(=O)c4ccc(C(=O)O)cc4)cc3C)cc2C(=O)N(C)c2cccnc21 [Entry 3032] | < 50 | < 50 |  | > 50 |  |  |  | 10 to 50
CCN1c2ncc(CCOc3ccc(NC(=O)c4ccccc4C(=O)O)cc3C)cc2C(=O)N(C)c2cccnc21 [Entry 3033] | > 100 | < 50 |  | 10 to 50 |  |  |  | < 10
CCN1c2ncc(CCOc3ccc(NC(=O)CCC(=O)O)cc3C)cc2C(=O)N(C)c2cccnc21 [Entry 4006] | 50 to 100 | < 50 | 10 to 50 | > 50 |  |  |  | 
CCN1c2ncc(CCOc3ccc(NC(=O)CC4(C(=O)O)CCCC4)cc3C)cc2C(=O)N(C)c2cccnc21 [Entry 4007] | > 100 | < 50 | < 10 | < 10 |  |  |  | 
CCN1c2ncc(CCOc3ccc(NC(=O)CC(C)(C)C(=O)O)cc3C)cc2C(=O)N(C)c2cccnc21 [Entry 4008] | > 100 | < 50 | < 10 | 10 to 50 |  |  |  | 
